Results on two molecules are retold here after PMC7802073, “Small Molecule Inhibitors of the Bacterioferritin (BfrB)–Ferredoxin (Bfd) Complex Kill Biofilm-Embedded Pseudomonas aeruginosa Cells” (ACS Infectious Diseases, 2020).

Assay type in all cases: cell-based, Pseudomonas aeruginosa
For assay [1], the system named is Pellicles of P. aeruginosa PAO1 expressing EYFP. As to the kind of experiment: Pellicle biofilm assay, CLSM imaging and COMSTAT viable biomass. To be noted: 24 h, approximately 1.2× IC50 (KM-5-25 80 μM, KM-5-66 50 μM). The procedure: Pellicle biofilms of EYFP-expressing P. aeruginosa PAO1 or clinical isolates were grown in PI media supplemented with 20 μM Fe. Starter cultures were diluted to OD600 = 0.001 in 4 mL media, placed in 35 × 10 mm Petri dishes and incubated statically at 30 °C for 48 h. The pellicles were transferred onto circular (1.5 cm diameter) glass coverslips by gently allowing the surface of a coverslip to contact a pellicle. The pellicle-adhered coverslip was washed in PBS and then deposited on top of 1.5 mL AB challenge media contained in a well of a 12-well microplate, with the pellicle exposed to the media. […] The coverslip-adhered pellicles were exposed to challenge media at 30 °C for 24 h, changing the challenge media every 12 h by transferring the pellicle-adhered coverslip to a new plate containing prewarmed challenge media.
Excess fluorescent dye was washed with PBS, the coverslip was mounted on a glass slide using 5 μL SlowFade (Invitrogen Life Technologies) and the edges sealed with fingernail polish. CLSM image stacks (z-step size of 0.3 μm) were acquired with the aid of a Leica TCS SP8 microscope, as described above. Quantitative analysis was performed by determination of pellicle biomass using COMSTAT[55] and the Otsu method of automatic thresholding.[86]

A further assay has as its system P. aeruginosa PAO1. As to the kind of experiment: Half maximal inhibitory concentration (IC50) on planktonic growth, CFU/mL enumeration. The following applies: Pseudomonas aeruginosa, PAO1, defined media, 24 h, 35 °C, 2% DMSO, this work, read-out: IC50. The procedure: Chemicals were purchased from Fisher Scientific unless otherwise stated. P. aeruginosa PAO1 was obtained from the University of Washington Genome center.[81] The PAO1 strain expressing enhanced yellow fluorescent protein (EYFP) was prepared previously.[26] Clinical isolates of P. aeruginosa were purchased from JMI Laboratories (North Liberty, IA, USA). […] Starter cultures were grown from a single colony at 37 °C and shaking at 220 rpm for 14 h in 5 mL PI media supplemented with 10 μM Fe. Pellicle biofilms were cultured for 48 h at 30 °C in PI media supplemented with 20 μM Fe. Surface-attached biofilms were cultured in AB minimal media[82] supplemented with trace metals [0.15 μM (NH4)2MoO4, 3 μM CuSO4, 2 μM Co(NO3)2, 9.4 μM Na2B4O7, and 7.6 μM ZnSO4], 3 mM glucose and 15 μM Fe. Iron supplementation was carried out by addition of a small volume of filter-sterilized 10 mM (NH4)2Fe(SO4)2 (pH ∼ 2.0) solution. […]; IC50 values (Table 1, Figure S1) were determined as reported previously[25] with small modifications. In brief: precultures of P. aeruginosa PAO1 (5 mL) were grown in LB media for 13 h at 37 °C and 220 rpm in 50 mL conical tubes (VWR International, PA). The cells were centrifuged for 5 min at 4000 rpm and 4 °C, washed two times and then diluted in buffer (100 mM KH2PO4 and 15 mM (NH4)2SO4) to an optical density at 600 nm (OD600) of 0.1. A small volume of compound stock solution (10 mM) was transferred to a microcentrifuge tube, initially diluted with DMSO to 20 μL, and then diluted to 1 mL with preculture cell suspension in defined media with OD600 = 0.0001, so the final DMSO concentration is 2%. The resultant cell suspension (200 μL) was transferred to a clear-bottom polystyrene 96-well plate (VWR) covered with a lid and incubated at 35 °C and 205 cpm for 24 h in a Synergy H1 microplate reader (Biotek Instruments Inc., Vermont). The cell cultures were serially diluted and then plated on PI Agar (PIA; BD biosciences) plates for enumeration of viable cells (CFU/mL). The % growth was calculated from the ratio CFU/mL(treated)/CFU/mL(untreated control). To calculate the IC50 values, the % growth was plotted as a function of compound concentration, expressed as log[compound] (μM), and fitted to the 4-parameter logistic model describing the sigmoid-shaped response pattern (eq 1),[84] where b is the slope factor, max is the upper asymptote (plateau), and min is the lower asymptote. Values are the average and standard deviation from three independent experiments. [drawing 1] 1

Assay [2] concerns P. aeruginosa clinical isolate PA_1081725. As to the kind of experiment: Viable cells (CFU/mL) dispersed from pellicle biofilms of a clinical isolate. To be noted: PA_1081725 pellicles, 24 h, 1.2× IC50 (KM-5-25 80 μM, KM-5-66 50 μM). The procedure:
(§1) Pellicle biofilms were grown as described above.

Assay [3] concerns P. aeruginosa clinical isolate PA_1076058. Described as above. To be noted: PA_1076058 pellicles, 24 h, 1.2× IC50 (KM-5-25 80 μM, KM-5-66 50 μM). The procedure: as §1

Consider `O=C1NC(=O)c2c(NCc3cc(Cl)ccc3O)cccc21` [KM-5-25, 4-((5-Chloro-2-hydroxybenzyl)amino)isoindoline-1,3-dione], for which the “cells in the pellicle killed (COMSTAT)” value in assay [1] is roughly 85%. Also, in the assay on P. aeruginosa PAO1, the IC50 amounted to 69 ± 7 µM. Besides, the “reduction of viable cells” value in assay [2] and in assay [3] was “approximately 80%” each time.
Regarding `O=C1NC(=O)c2c(NCCCc3cc(O)cc(Cl)c3)cccc21` [KM-5-66, 4-((3-(3-Chloro-5-hydroxyphenyl)propyl)amino)isoindoline-1,3-dione], the “cells in the pellicle killed (COMSTAT)” value in assay [1] is roughly 85%. In the assay on P. aeruginosa PAO1, the IC50 was determined as 42 ± 6 µM. Also, the “reduction of viable cells” value in assay [2] and in assay [3] was “approximately 80%” each time.

The IC50 is the point on the concentration scale where inhibition reaches its midpoint.
